According to patent US10196411B2, “Tizoxanide phosphate and alkane sulfonate and pharmaceutical applications thereof” (priority 2014, dated 2019):
Converted amounts (≈) assume the structure as drawn. Where a name gives a salt, the structure may show the parent alone. Read-outs that look alike come from different tables or passages of the source.

How the values were obtained:
[1] = Pharmacokinetic evaluation of oral administration in mice (tizoxanide in blood by LC/MS/MS); type: in vivo, ICR mice; conditions: in words; for conversion to the active form tizoxanide in vivo: after oral administration in mice; for Area Under concentration-time Curve (AUC) compared to nitazoxanide: oral administration in mice
Method: Sample preparation: 32.57 μmol of a test compound was dissolved in 100 μL dimethyl sulfoxide (DMSO), with the addition of 10 mL 0.5% Carboxyl Methyl Cellulose Sodium (CMC-Na) solution, to prepare a sample at 3.257 μmol/mL.
The test compounds refer to the compounds prepared in Examples of the invention and the positive control compound nitazoxanide. The experiment was carried out in two batches, wherein the first hatch of test compounds were Compound 1, 2, 6, 7, 8, 9 and the positive control compound nitazoxanide; and the second batch of test compounds were Compound 3, 4, 5, 12, 14, 17, 18 and positive control compound nitazoxanide.
Experimental method: ICR mice (SPS grade, male, […]), purchased from Beijing Vital River Laboratory Animal Technology Co., Ltd., were grouped randomly depending on body weight, 3 mice for each group. Nitazoxanide and a test compound were intragastrically administered separately to each mouse at a dose of 10 mL/kg (i.e., 32.57 μmol/kg of corresponding drug to each mouse), wherein nitazoxanide was used as positive control, and 0.1 ml blood was taken from veins of Fundus Oculi at 0.08, 0.25, 0.5, 1, 2, 4, 6, 8 and 12 h after administration, placed in a Heparin Sodium-containing centrifuge tube, and centrifuged for 20 min (at a relative centrifugal force (RCF) of 3000 g). The plasma was taken and stored in a −20° C. refrigerator for further detection.
During the detection, 50 μL plasma was taken, with the addition of an internal standard solution (5000 ng/mL glipizide aqueous solution, 10 μL), and the addition of acetonitrile (200 μL), and then mixed well. The mixture was vortexed for 3 min, and centrifuged for 10 min (at a relative centrifugal force (RCF) of 8500 g). The supernatant (50 μL) was well mixed with water (50 μL), and 10 μL was drawn for LC/MS/MS analysis, so as to detect the blood concentration of tizoxanide. The results are shown in Table 1, Table 2, Table 3, Table 4, FIG. 1, and FIG. 2.

[2] = Pharmacokinetic evaluation of oral administration and intravenous injection in rats; type: in vivo, SD rats; conditions: for MRT last: read-out: MRT(0-t)
Method: 9 SD rats (SPF grade, male, 200±10 g), provided by Laboratory Animal Center of the Academy of Military Medical Sciences, were grouped randomly, 3 […] for each group.
[…]; The plasma was separated and stored in a −20° C. refrigerator for further detection.
(2) Oral administration group of Compound 3, a dose of 15 mg/kg (equivalent to a dose of 41 μmol/kg tizoxanide); […]; The plasma was separated and stored in a −20° C. refrigerator for further detection.
(3) Oral administration group of nitazoxanide: a dose of 12.5 mg/kg (equivalent to a dose of 41 μmol/kg tizoxanide); administration volume: 2 mL/200 g rat (preparation of a test solution: 10.96 mg nitazoxanide was weighed accurately and dissolved by adding 600 μL DMSO, and […] sterile water was added to prepare a clear solution at 1.25 mg/mL); after oral administration of nitazoxanide at 12.5 mg/kg in rats, blood was taken before administration and at 0.08, 0.25, 0.5, 1, 2, 4, 6, 8, 12 and 24 h after administration. The plasma was separated and stored in a −20° C. refrigerator for further detection.
Treatment of plasma sample: 100 μL plasma was taken, 300 μL acetonitrile solution containing internal standard (500 nmol/L a solution of tolbutamide in acetonitrile) was added, and then mixed well. The mixture was vortexed for 1 min, and centrifuged at 4° C. for 10 min (at a relative centrifugal force (RCF) of 14000 g). The supernatant was taken, and 20 μL was drawn for LC/MS/MS analysis, so as to detect the blood concentration of tizoxanide and the prototype drug.

[3] = in words
[4] = test system: Mycobacterium tuberculosis; conditions: cited from earlier work
[5] = in vivo, cited from earlier work
[6] = test system: PR8 influenza virus; conditions: PR8 influenza virus in MDCK cells; cited from earlier work
[7] = test system: Helicobacter pylori; conditions: 103 strains of Helicobacter pylori; cited from earlier work
[8] = Compound 3 in plasma, rats, intravenous injection of Compound 3 (5 mg/kg)
[9] = Compound 3 in plasma, rats, oral administration of Compound 3 (15 mg/kg)
[10] = male, SD, rat, in vivo, Compound 3 in plasma, rats, intravenous injection of Compound 3 (5 mg/kg)
[11] = male, SD, rat, in vivo, Compound 3 in plasma, rats, oral administration of Compound 3 (15 mg/kg)
[12] = male, SD, rat, in vivo, rats, intravenous injection of Compound 3 (5 mg/kg), read-out: plasma concentration of Compound 3
[13] = male, SD, rat, in vivo, rats, oral administration of Compound 3 (15 mg/kg), read-out: plasma concentration of Compound 3

For `CC(C)(C)OC(=O)NCCS(=O)(=O)Oc1ccccc1C(=O)Nc1ncc([N+](=O)[O-])s1`, the melting point was 164 to 166 °C.

With `O=C(Nc1ncc([N+](=O)[O-])s1)c1ccccc1OP(=O)(OCc1ccccc1)OCc1ccccc1` [Compound 1, dibenzyl 2-(5-nitrothiazol-2-yl-carbamoyl)phenyl phosphate] the “conversion to the active form tizoxanide in vivo” value (from here on “conversion … in vivo”) [1] was “relatively complete”, the “Area Under concentration-time Curve (AUC) compared to nitazoxanide” value [1] was “slightly higher” and the melting point was 122 to 123 °C.

With `O=C(Nc1ncc([N+](=O)[O-])s1)c1ccccc1OP(=O)(O)O` [Compound 2, 2-(5-nitrothiazol-2-yl-carbamoyl)phenyl dihydrogen phosphate] the “conversion … in vivo” value [1] was “relatively complete” and the melting point was 224 to 226 °C.

Work on `O=C(Nc1ncc([N+](=O)[O-])s1)c1ccccc1OP(=O)(O)O` [Compound 3, 2-(5-nitrothiazol-2-yl-carbamoyl)phenyl hydrogen phosphate monosodium salt] yielded a CLz/F [2, 8] of 1.03 ± 0.17 L/h/kg, a t1/2z [2, 8] of 0.48 ± 0.28 h and a CLz/F [2, 9] of 112.79 ± 47.03 L/h/kg. It also gave an F [2, 9] of 2.4%, a t1/2z [2, 9] of 1.67 ± 1.67 h and an AUC(0-inf) [2, 10] of 4920 ± 786 ng·h/mL. The AUC(0-t) [2, 10] was 4920 ± 786 ng·h/mL, the Cmax [2, 10] was 26700 ± 6590 ng/mL and the MRT last [2, 10] was 15.6 ± 9 min. It also gave an AUC(0-inf) [2, 11] of 154 ± 76.3 ng·h/mL, an AUC(0-t) [2, 11] of 119 ± 50 ng·h/mL and a Cmax [2, 11] of 100 ± 20 ng/mL. The Tmax [2, 11] was 15 min, the MRT last [2, 11] was 73.2 ± 49.8 min and the Vd/F ([2]; male, SD, rat, in vivo, Compound 3 in plasma, rats, oral administration of Compound 3 (15 mg/kg), read-out: Vz/F) was 198 ± 118 L/kg. The concentration at 0.03 h [2, 12] was 26700 ± 6590 ng/mL, the concentration at 0.08 h [2, 12] was 13300 ± 1390 ng/mL and the concentration at 0.25 h [2, 12] was 3970 ± 1880 ng/mL. The concentration at 0.5 h [2, 12] was 1730 ± 1250 ng/mL, the concentration at 1 h [2, 12] was 345 ± 316 ng/mL and the concentration at 2 h ([2]; male, SD, rat, in vivo, rats, intravenous injection of Compound 3 (5 mg/kg), 2 h, read-out: plasma concentration of Compound 3) was 113 ± 83.4 ng/mL. It also gave a concentration at 4 h ([2]; male, SD, rat, in vivo, rats, intravenous injection of Compound 3 (5 mg/kg), 4 h, read-out: plasma concentration of Compound 3) of 13.9 ± 1.9 ng/mL, a concentration at 0.03 h [2, 13] of 55.3 ± 2.1 ng/mL and a concentration at 0.08 h [2, 13] of 99.1 ± 22.1 ng/mL. For the same compound, the concentration at 0.25 h [2, 13] was 71.1 ± 7.3 ng/mL, the concentration at 0.5 h [2, 13] was 33 ± 3.2 ng/mL and the concentration at 1 h [2, 13] was 24.4 ± 1.6 ng/mL. For the same compound, the “conversion to active form tizoxanide” value ([2]; rats, oral administration or intravenous injection, in words) was “quickly converted”.

With `O=C(Nc1ncc([N+](=O)[O-])s1)c1ccccc1OP(=O)(O)O` [Compound 5, 2-(5-nitrothiazol-2-yl-carbamoyl)phenyl phosphate calcium salt] the “solubility compared to nitazoxanide” value [3] was “much better”.

In the case of `CS(=O)(=O)Oc1ccccc1C(=O)Nc1ncc([N+](=O)[O-])s1` [Compound 6, 2-(5-nitrothiazol-2-yl-carbamoyl)phenyl methanesulfonate], the “conversion … in vivo” value [1] is reported as “relatively complete”, the “Area Under concentration-time Curve (AUC) compared to nitazoxanide” value [1] is reported as “much higher” and the melting point is reported as 188 to 190 °C.

In the case of `CCS(=O)(=O)Oc1ccccc1C(=O)Nc1ncc([N+](=O)[O-])s1` [Compound 7, 2-(5-nitrothiazol-2-yl-carbamoyl)phenyl ethanesulfonate], the “conversion … in vivo” value [1] is reported as “relatively complete”, the “Area Under concentration-time Curve (AUC) compared to nitazoxanide” value [1] is reported as “much higher” and the melting point is reported as 178 to 180 °C.

For `CCCS(=O)(=O)Oc1ccccc1C(=O)Nc1ncc([N+](=O)[O-])s1` [Compound 8, 2-(5-nitrothiazol-2-yl-carbamoyl)phenyl 1-propanesulfonate], the “conversion … in vivo” value [1] was “relatively complete”, the “Area Under concentration-time Curve (AUC) compared to nitazoxanide” value [1] was “much higher” and the melting point was 144 to 146 °C.

With `CCCCS(=O)(=O)Oc1ccccc1C(=O)Nc1ncc([N+](=O)[O-])s1` [Compound 9, 2-(5-nitrothiazol-2-yl-carbamoyl)phenyl 1-butanesulfonate] the “conversion … in vivo” value [1] was “relatively complete”, the “Area Under concentration-time Curve (AUC) compared to nitazoxanide” value [1] was “much higher” and the melting point was 142 to 144 °C.

With `NCCS(=O)(=O)Oc1ccccc1C(=O)Nc1ncc([N+](=O)[O-])s1` [Compound 12, 2-(5-nitrothiazol-2-yl-carbamoyl)phenyl taurate hydrochloride] the “conversion … in vivo” value [1] was “relatively complete” and the “Area Under concentration-time Curve (AUC) compared to nitazoxanide” value [1] was “much higher”.

In the case of `COP(=O)(OC)Oc1ccccc1C(=O)Nc1ncc([N+](=O)[O-])s1` [Compound 17, dimethyl 2-(5-nitrothiazol-2-yl-carbamoyl)phenyl phosphate], the “conversion … in vivo” value [1] is reported as “relatively complete” and the “Area Under concentration-time Curve (AUC) compared to nitazoxanide” value [1] is reported as “obviously higher”.

In the case of `CCOP(=O)(OCC)Oc1ccccc1C(=O)Nc1ncc([N+](=O)[O-])s1` [Compound 18, diethyl 2-(5-nitrothiazol-2-yl-carbamoyl)phenyl phosphate], the “conversion … in vivo” value [1] is reported as “relatively complete” and the “Area Under concentration-time Curve (AUC) compared to nitazoxanide” value [1] is reported as “obviously higher”.

For `CC(=O)Oc1ccccc1C(=O)Nc1ncc([N+](=O)[O-])s1` [nitazoxanide, 2-acetoxy-N-(5-nitro-2-thiazolyl)benzamide], the “minimal inhibitory concentration (MIC), median value” [4] is listed as 16 µg/mL (≈ 52.1 µM), the “detection of nitazoxanide in plasma, urine, bile and feces” value ([5]; po) is listed as “not detectable” and the “fraction of the oral dose excreted by feces” value [5] is listed as “about ⅔”. For the same compound, the “fraction of the oral dose excreted by urine” value [5] was “about ⅓”, the EC50 [6] was 1 µg/mL (≈ 3.25 µM) and the EC90 [6] was 7 µg/mL (≈ 22.8 µM). The Vz/F ([2]; male, SD, rat, in vivo, po, 12.5 mg/kg) was 32.67 ± 16.81 L/kg, the “50% minimal inhibitory concentration (MIC50)” value [7] was 1 µg/mL and the “90% minimal inhibitory concentration (MIC90)” value [7] was 4 µg/mL.

For `O=C(Nc1ncc([N+](=O)[O-])s1)c1ccccc1O` [tizoxanide], the “50% minimal inhibitory concentration (MIC50)” value [7] is listed as 1 µg/mL and the “90% minimal inhibitory concentration (MIC90)” value [7] is listed as 4 µg/mL.
